Assay results published in patent US8513219B2, “Substituted phosphonates and their use in decreasing amyloid aggregates” (Queen Mary & Westfield College, University of London, priority 2007, dated 2013).
Like-named read-outs stand apart in the source and are kept apart here.

Columns and labels:
[1] = test system: L929 immortalised fibroblast cell line; assay: MTT colorimetric toxicity assay in L929 fibroblast cell line; assay type: cell-based; conditions: L929, 0.3 nM to 1 μM, up to 24 h exposure
Experimental: A first assessment of the potential toxicity of the substituted phosphonates was carried out in a non-neuronal cell line, using a tetrazolium salt (MTT) colorimetric assay, based on the method described by Mossman (1983), which gives a reflection of mitochondrial activity and cell integrity. The MTT [3-(4,5-dimethylthiazol-2-yl)-2,5-diphenyltetrazolium bromide] assay is based on the ability of a mitochondrial dehydrogenase enzyme from viable cells to cleave the tetrazolium rings of the pale yellow MTT and form dark blue formazan crystals which cannot cross cell membranes. The result is that healthy cells will accumulate more of the blue formazan crystals. […] They were then incubated for 2 h after addition of MTT (1 mg/ml) and the absorbance was read at 570 nm. […] The toxicity of the reference compound clioquinol (0.3 nM to 1 μM) was assessed under the same conditions, for comparison.
A first assessment of toxicity of the substituted phosphonates was carried out in a non-neuronal cell line, using a tetrazolium salt (MTT) colorimetric assay, based on the method described by Mossman (1983), which gives a reflection of mitochondrial activity and cell integrity (FIGS. 6 and 7). The toxicity of the reference compound clioquinol (0.3 nM to 1 μM) was assessed under the same conditions, for comparison.

β-amyloid plaques = test system: β-amyloid plaques; set-up: species or system APP and APP/Tau transgenic mice; conditions: mouse, in vivo
[2] = test system: H4 cells (human neuroblastoma cell line)
[3] = test system: amyloid accumulation in H4 cells; assay: H4 cell amyloid accumulation (6E10 antibody, HRP/OPD absorbance); assay type: cell-based, human
[4] = test system: intracellular amyloid in H4 cells; assay: intracellular distribution of amyloid in H4 cells (6E10 immunofluorescence); assay type: cell-based, human; conditions: 1 μM, 5 days incubation, single dose
[5] = H4 cells, 1 μM, average of 2-3 experiments

Row | Structure (SMILES) | toxicity as reflected in cell viability (MTT) [1] | amyloid plaque load in brain (β-amyloid plaques) | cell survival (% controls), 5 day repeated doses ([2]; 5 days, 1 μM) [% controls] | cell survival (% controls), 5 day single dose ([2]; 5 days, 1 μM) [% controls] | accumulation of amyloid in H4 cells ([3]; 1 μM, 5 days) | amyloid reduction (% controls), 5 day repeated doses [3, 5] [% controls] | amyloid reduction (% controls), 5 day single dose [3, 5] [% controls] | intracellular amyloid labelling in H4 cells [4] | cell survival (% controls), 5 day repeated doses [2] [% controls] | cell survival (% controls), 5 day single dose [2] [% controls] | amyloid reduction (% controls), 5 day repeated doses [3] [% controls] | amyloid reduction (% controls), 5 day single dose [3] [% controls] | reduction of cell viability [2] [%]
1 | Oc1c(I)cc(Cl)c2cccnc12 [Clioquinol, reference compound] | neither clioquinol nor any of the substituted phosphonates screened showed any toxicity | apparent decreased plaque load, and especially a reduced load of large aggregates | 96 | 99 | decreases the accumulation of amyloid | 76 | 64 | reduced this intracellular accumulation in some of the cells, but brightly labelled areas could still be found | – | – | – | – | –
2 | CCOP(=O)(COc1ccccc1-c1nc2ccccc2s1)OCC [Compound 14, Diethyl 2-(2-benzthiazolyl)phenoxymethylphosphonate] | – | – | – | – | – | – | – | – | 110 | 100 | 83 | 100 | –
3 | CCOP(=O)(COc1ccc2c(c1)[nH]c1ccccc12)OCC [Compound 17, Diethyl-2-carbazolyloxymethylphosphonate] | – | – | – | – | – | – | – | – | 102 | 97 | 62 | 37 | –
4 | O=P([O-])([O-])Cn1c2ccccc2c2ccccc21.[Na+].[Na+] [Compound 20, Disodium N-carbazolylmethylphosphonate] | – | – | – | – | – | – | – | – | 72 | 88 | 66 | 11 | 28
5 | CCOP(=O)(COc1ccc(NC(C)=O)cc1)OCC [Compound 25, Diethyl 4-acetamidophenoxy methylphosphonate] | – | – | – | – | – | – | – | – | 97 | 98 | 62 | 24 | –
